The test system of one data set is PDAC patients. The conditions noted are these: cited from earlier work.
Data set [1] is described as follows: Same clinical trial: safety, serious adverse events (SAEs). Type of data set: in vivo, human. The conditions noted are these: for number of serious adverse events (SAEs) reported in the arm: 93 patients per arm; for patients with serious adverse events (SAEs): of 93 patients in the arm. As to the method:
(§1) One hundred and ninety two (192) newly diagnosed patients with locally advanced or metastatic pancreatic cancer were randomized and recruited into 2 arms, on the treatment arm patients were administered administered i.v infusion of nimotuzumab at 400 mg dose once a week until progressive disease or unacceptable toxicity and gemcitabine 1000 mg/m^2 once weekly for 3 weeks, followed by a 1-week rest (d1, 8, 15; q28) and on the control arm patients were administered i.v infusion of placebo once a week until progressive disease or unacceptable toxicity and gemcitabine 1000 mg/m^2 once weekly for 3 weeks, followed by a 1-week rest (d1, 8, 15; q28).
(§2) As a primary endpoint, overall survival (OS) in the intention-to-treat (ITT) population was evaluated. The OS was assessed by the date of the last visit, death or loss of the follow up. The OS was initially calculated for all population and then a subset analysis was run taking into consideration the KRAS status of each of the patients on each treatment arm. Secondary endpoints included progression free survival (PFS), assessed by the day of the progression or the death, safety, assessed by the incidence of adverse events (AE) or serious adverse events (SAE), objective response rate (ORR), assessed by the number of patients on each treatment arm with Complete Response (CR) and Partial Response (PR) to the treatment ((CR+PR)/N, No. patients in the arm)) and Quality of Life (QoL), assessed using EORTC quality of life questionnaire QLQ-C30 version 2.0 (EORTC, NL).

Data set [2] deals with locally advanced or metastatic pancreatic cancer patients. In words: Randomized clinical trial of gemcitabine plus nimotuzumab versus gemcitabine plus placebo: survival by KRAS status. It counts as in vivo, human. The conditions noted are these: for overall survival (OS), Kaplan-Meier, versus placebo-gemcitabine arm / progression-free-survival (PFS), Kaplan-Meier, versus placebo-gemcitabine arm: nimotuzumab 400 mg i.v. once weekly + gemcitabine 1000 mg/m^2 (d1, 8, 15; q28). On the procedure: In this clinical trial patients with previously untreated, unresectable, locally advanced or metastatic pancreatic adenocarcinoma received gemcitabine (1000 mg/m^2/30-min iv once weekly (d1, 8, 15; q28)) and nimotuzumab (400 mg 30-min iv once weekly), or placebo until disease progression or unmanageable toxicity. The primary endpoint in this study was overall survival (OS) in the intention-to-treat (ITT) population. The secondary endpoints included progression free survival (PFS), safety, objective response rate (ORR), and Quality of Life (QoL).
as §1
Tumor response was assessed using CT (Computed Tomography) or MRI (Magnetic Resonance Imaging) and statistically analyzed using RECIST (Response Evaluation Criteria in Solid Tumors), which provides guidelines for identifying complete response, partial response, stable disease, or progressive disease based on tumor size (see, e.g., Therasse et al., February 2000, “New Guidelines to Evaluate the Response to Treatment in Solid Tumors,” J. Natl. Cancer Inst. 92 (3): 205-216) and overall survival was assessed by the last patient visit, death or loss of follow up.
Out of 192 patients that were randomized into 2 arms, tumor samples were taken from 101 patients (49 from the control arm and 52 from the treatment arm).
To determine if KRAS status correlates with survival the 101 samples were tested. From the KRAS analysis of the 101 samples, 34 samples were KRAS Wild Type (20 from the control arm and 14 from the treatment arm) and 67 samples has the mutation of the KRAS (29 from the control arm and 38 from the treatment arm).
as §2
Progression-free-survival (PFS) is defined as the length of time during and after the treatment of a disease, such as cancer, that a patient lives with the disease without worsening of the symptoms and was measured from date of randomization to the occurrence of progression or death or last date of observation without progression.

Where [3] appears, read: patients with KRAS mutated, FIG. 3.
Where [4] appears, read: patients with KRAS wild type, FIG. 4.

Entries after “also recorded” stand apart in the source; their conditions may differ.

With `C#Cc1cccc(Nc2ncnc3cc(OCCOC)c(OCCOC)cc23)c1` [Erlotinib], the “PDAC patients in whom treatment has shown benefit” value in the data set on PDAC patients (Moore et al. J Clin Oncol. 2007) was “about 10%”. In addition, the “prolongation of median survival” value in the data set on PDAC patients (addition to gemcitabine) is reported as 2 weeks.
As to “nimotuzumab: anti-EGFR humanized monoclonal antibody produced by the cell line h-R3 deposited as ECACC 951110101”, in data set [1] (nimotuzumab arm), the “SAE related to study drug: general physical health deterioration, subjects” value stood at 3.23%; the “SAE related to study drug: nausea, subjects” value was 2.15%; the “SAE related to study drug: thrombocytopenia, subjects” value is listed as 2.15%; the “SAE related to study drug: vomiting, subjects” value is 2.15%. In addition, in data set [1] (nimotuzumab arm, of 93 patients), the “patients with SAEs reported to be related to the study drug” value is given as 16.1%. Also, in data set [1] (nimotuzumab arm, of the 108 SAEs), the “number of SAEs reported to be related to the study drug” value is given as 26 SAEs.
Consider “nimotuzumab-gemcitabine: treatment arm: nimotuzumab 400 mg i.v. once a week plus gemcitabine 1000 mg/m^2 once weekly for 3 weeks, 1-week rest”, for which, in data set [2] (setting [3]), the “overall survival (OS), Kaplan-Meier, versus placebo-gemcitabine arm” value is on record as “no difference” and the “progression-free-survival (PFS), Kaplan-Meier, versus placebo-gemcitabine arm” value is given as “no difference”. Besides, in data set [2] (setting [4]), the “overall survival (OS), Kaplan-Meier, versus placebo-gemcitabine arm” value is “significant difference in favour of the treatment arm; also recorded: significant improvement” and the “progression-free-survival (PFS), Kaplan-Meier, versus placebo-gemcitabine arm” value is given as “significant difference in favour of the treatment arm; also recorded: significant improvement”. Further, in data set [2] (patients with KRAS wild type, FIG. 4, listed as nimotuzumab and gemcitabine), the “overall survival (OS), Kaplan-Meier, versus placebo-gemcitabine arm” value is listed as “significantly improved”. Also, the “increase of median overall survival compared to control arm (placebo-gemcitabine)” value in data set [2] (subgroup of KRAS WT) is 6 months. In data set [1], the “number of serious adverse events (SAEs) reported in the arm” value came to 108 SAEs and the “patients with serious adverse events (SAEs)” value was determined as 58.1%.
As for `Nc1ccn([C@@H]2O[C@H](CO)[C@@H](O)C2(F)F)c(=O)n1` [placebo-gemcitabine, gemcitabine, reference compound], in data set [1], the “number of serious adverse events (SAEs) reported in the arm” value worked out at 104 SAEs and the “patients with serious adverse events (SAEs)” value turned out to be 65.6%.
